In PubChem BioAssay (NCI):
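The compound was tested at five concentrations on cells cultured in 96-well plates, with a 48-hour exposure period. The concentration for full growth arrest is given as TGI.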

Legend:
Assay in all cases: growth of human tumour cells (NCI), 48 h
HS 578T breast = test system: HS 578T breast
HOP-62 NSCLC = test system: HOP-62 NSCLC
SK-MEL-2 melanoma = test system: SK-MEL-2 melanoma
IGROV1 ovarian = test system: IGROV1 ovarian
OVCAR-8 ovarian = test system: OVCAR-8 ovarian
LOX IMVI melanoma = test system: LOX IMVI melanoma
RXF 393 renal = test system: RXF 393 renal
NCI/ADR-RES ovarian = test system: NCI/ADR-RES ovarian
SF-539 CNS = test system: SF-539 CNS
UACC-62 melanoma = test system: UACC-62 melanoma
HL-60(TB) leukemia = test system: HL-60(TB) leukemia
SN12C renal = test system: SN12C renal
UO-31 renal = test system: UO-31 renal
MOLT-4 leukemia = test system: MOLT-4 leukemia
CCRF-CEM leukemia = test system: CCRF-CEM leukemia

Compound	TGI (HS 578T breast) [µM]	TGI (HOP-62 NSCLC) [µM]	TGI (SK-MEL-2 melanoma) [µM]	TGI (IGROV1 ovarian) [µM]	TGI (OVCAR-8 ovarian) [µM]	TGI (LOX IMVI melanoma) [µM]	TGI (RXF 393 renal) [µM]	TGI (NCI/ADR-RES ovarian) [µM]	TGI (SF-539 CNS) [µM]	TGI (UACC-62 melanoma) [µM]	TGI (HL-60(TB) leukemia) [µM]	TGI (SN12C renal) [µM]	TGI (UO-31 renal) [µM]	TGI (MOLT-4 leukemia) [µM]	TGI (CCRF-CEM leukemia) [µM]
O=C(/C=C/c1ccccc1)Oc1cccc(Br)c1	> 100	> 100	> 100	> 100	> 100	> 100	> 100	> 100	> 100	> 100	52.1	> 100	> 100	29.8	–
N#Cc1ccc2[nH]c3c(c2c1)CC(=O)Nc1ccccc1-3	> 100	> 100	> 100	> 100	> 100	> 100	> 100	> 100	> 100	> 100	> 100	–	> 100	> 100	> 100
O=S1(=O)OCCCOS(=O)(=O)C1(Br)Br	> 100	> 100	> 100	–	> 100	> 100	> 100	> 100	–	> 100	> 100	> 100	> 100	> 100	> 100
COc1cccc([C@@H]2CC(=O)c3cc4c(cc3N2)OCO4)c1	> 100	> 100	> 100	–	> 100	> 100	> 100	> 100	> 100	> 100	–	> 100	> 100	–	> 100
CC(C)=CCC[C@@H](C)C1=CC(=O)C(C)=C(O)C1=O	21.1	25.7	26.3	23.2	4.83	11.9	5.92	11.3	–	24.1	0.878	22.6	13.5	> 23.5	3.9
C1=CN2C[n+]3ccc4ccccc4c3N=C2c2ccccc21	30.4	32.5	9.33	20.2	24.9	–	–	> 100	14.8	4.32	9.1	9.52	69.3	13.3	23.7
COC12C=CC(CC1)C(C)(C)C2OS(C)(=O)=O (stereo not drawn)	> 100	> 100	> 100	> 100	> 100	–	> 100	> 100	> 100	> 100	> 100	> 100	> 100	> 100	> 100
CC(=O)N1C(Nc2cccc3nc(C)ccc23)CCN1c1ccccc1 (stereo not drawn)	> 10	> 10	> 10	> 10	> 10	> 10	> 10	> 10	> 10	–	> 10	> 10	> 10	> 10	> 10
